Here are results for one molecule from EPA's ToxValDB 9.5 (doi:10.2903/j.efsa.2007.108r).

Series [1] concerns Apis mellifera. Particulars: acute; duration: 48 hours; oral; unspecified; mortality.
The subject of series [2] is Colinus virginianus.
Series [3] concerns Anas platyrhynchos. The following applies: short-term; oral; feed; mortality.
The subject of series [4] is Rattus norvegicus.
Series [5] deals with Daphnia magna. Particulars: chronic/long-term; duration: 21 days; reproduction.
In series [6] the test system is Tagia sp. Particulars: acute; duration: 14 days; mortality.
Series [7] relates to Oncorhynchus mykiss.

Values after ≈ are worked out from the molar mass of the structure shown. Values joined by “and” are separate entries in the source; they are usually repeats but may differ in a detail not shown here. Equal values may be shown once. Bounds are passed on as bounds.

As to `Nc1cnn(-c2ccccc2)c(=O)c1Cl` [Chloridazon], the LD50 in series [1] is above 200 µg/piece; in series [2] (acute, oral, mortality), at least 2000 mg/kg; in series [4] (acute, oral, F, mortality), 2140 mg/kg and 825 mg/kg. For the same molecule, the NOAEL in series [2] (reproduction developmental, F) was 21.8 mg/kg-day; in series [4] (chronic, duration: 2 years, body weight), 13 mg/kg-day; in series [4] (reproduction developmental, body weight), 37 mg/kg-day; in series [4] (reproduction developmental, reproduction) it was 37 mg/kg-day; in series [4] (subchronic, duration: 90 days, oral, body weight), 21 mg/kg-day. Further, the LC50 is 1110 mg/kg in series [3]; above 1000 mg/kg in series [6]; 41.3 µg/mL (≈ 186 µM) in series [7] (acute, duration: 96 hours, mortality). Moreover, the NOEC in series [5] was found to be 10 mg/L; in series [7] (chronic/long-term, duration: 28 days, growth), 3.16 mg/L.

Broadly, the NOAEL is the highest tested level that showed no adverse finding.
